The values below come from paper PMC8341910, “Structural and biophysical insights into the mode of covalent binding of rationally designed potent BMX inhibitors” (RSC Chemical Biology, 2020).

Usually ΔTm stands for the shift of the melting midpoint relative to a reference. For orientation: IC50 means the concentration at which inhibition is half-maximal. A word on the Papp: it is the rate of passage across a membrane or cell layer, normalised by area and donor concentration.

Data set [1] in a line: Dynamic light scattering, colloidal aggregation. Format: physicochemical. As to conditions: measured at 10 µM, 1 µM and 100 nM, 25 °C, read-out: DLS maximum soluble concentration at which no aggregates are observed.
Description: In addition, we measured particle sizes by using dynamic light scattering (DLS).
DLS is measured at 10 µM, 1µM and 100 nM. The maximum soluble
concentration – at which no aggregates are observed - is indicated and the colour code indicates
Dynamic Light Scattering:
Dynamic light scattering (Zetasizer Nano S, Malvern, UK) was used to determine compound colloidal aggregation. […] A 10 mM stock solution of
test compounds was prepared in DMSO, following dilution to deionized and filtered water to
obtain an analyte solution of 10 μM (0.1% DMSO). Colloidal aggregation was measured
through sequential dilutions at 10 μM, 1 μM and 0.1 μM.
The conditions of data set [2]: pH 6.8.
Excerpt: (§1) For assessment of drug permeability, we relied on parallel artificial membrane permeability assay (PAMPA) performed at Pion Inc. with the PAMPA Evolution™ instrument (Table S1, ESI ^†).
(§2) methods (ESOL model1 and Ali et al.2) PAMPA: Pe is effective permeability (x10-6 cm/sec)
(§3) measured directly from assay at pH 6.8 and %R is membrane retention.
(§4) as the average of quadruplicates. Und label refers to compounds with extremely low solubility
(§5) for which UV limits were below the detection limits therefore considered undetected.
(§6) Compounds were labelled as high permeability (green), medium permeability (orange) or low
(§7) Artificial Membrane Permeability (PAMPA):
(§8) The PAMPA Evolution™ instrument was used to determine permeability, at Pion Inc. In
(§9) PAMPA, a sandwich is formed such that each composite well is divided into two chambers,
(§10) measured at pH 6.8 in the donor compartment using low-binding, low UV Prisma buffer. The
(§11) drug-free acceptor compartment was filled with acceptor sink buffer containing a scavenger at
(§12) the start of the test. The proprietary scavenger mimics serum proteins and blood circulation,
(§13) thus creating sink conditions. Aqueous solutions of studied compounds are prepared by diluting
(§14) and thoroughly mixing 3 µL of DMSO stock in 600 µL of Prisma HT buffer. Final
(§15) concentration of organic solvent (DMSO) in aqueous buffer is ≤ 0.5% (v/v). The reference
(§16) solution is identical to the donor at time zero, so that any surface adsorption effects from the
(§17) plastic ware is compensated. The PAMPA sandwich was assembled and allowed to incubate
(§18) for ~15 hours. The solutions in the donor compartment were un-stirred within duration of the
(§19) experiment. Thus, the thickness of the aqueous boundary layer expected to be about 1000 µm.
(§20) The sandwich was then separated, and both the donor and receiver compartments were assayed
(§21) for the amount of drug present by comparison with the UV spectrum obtained from reference
In data set [3] the target is T1, recombinant human BMX protein (hBMX) (Homo sapiens, UniProt P51813).
T1 construct: Crystallization, data collection, and structure determination of BMX catalytic domain in; made in house; host or cells: Sf-9 insect cells
The data set can be described thus: Differential scanning fluorimetry (DSF). Format: binding. As to conditions: 100 μM compound; for ΔTm / ΔTm at 100 µM: versus apo-BMX; for Average Tm of BMX with compound: apo-BMX Tm 51.8-52.2 °C; for ΔTm at 100 µM: read-out: ΔTm. For orientation: Differential scanning fluorimetry follows unfolding on heating by fluorescence.
Description: We further characterized the binding interaction between JS24–JS27 and BMX by using differential scanning fluorimetry (DSF) and surface plasmon resonance (SPR). Purified recombinant human BMX protein (hBMX) was first subjected to thermal scanning in the absence and presence of JS24–JS27, and the respective protein melting temperature (Tm) calculated.
Differential Scanning Fluorimetry:
DSF was performed in MicroAmp™ EnduraPlate™ Optical 96 -Well Clear Reaction Plates
with Barcode (Applied Biosystems, Life Technologies, California, USA) using a QuantStudio
7 Flex Real-Time PCR System (Applied Biosystems). Pre-incubation of the protein with the
compound for 2 hours at 4 °C was required prior to DSF experiments. The final reaction mixture
(20 μL of total volume) contained 4 μg of His6-BMX, 4-fold of Protein Thermal Shift™ Dye
(Applied Biosystems) diluted in protein buffer solution, and 100 μM of compound. The
temperatures were obtained by taking the midpoint of each transition.

In another data set the target is T2, BMX (Homo sapiens, UniProt P51813).
T2 sequence (P51813 1-675): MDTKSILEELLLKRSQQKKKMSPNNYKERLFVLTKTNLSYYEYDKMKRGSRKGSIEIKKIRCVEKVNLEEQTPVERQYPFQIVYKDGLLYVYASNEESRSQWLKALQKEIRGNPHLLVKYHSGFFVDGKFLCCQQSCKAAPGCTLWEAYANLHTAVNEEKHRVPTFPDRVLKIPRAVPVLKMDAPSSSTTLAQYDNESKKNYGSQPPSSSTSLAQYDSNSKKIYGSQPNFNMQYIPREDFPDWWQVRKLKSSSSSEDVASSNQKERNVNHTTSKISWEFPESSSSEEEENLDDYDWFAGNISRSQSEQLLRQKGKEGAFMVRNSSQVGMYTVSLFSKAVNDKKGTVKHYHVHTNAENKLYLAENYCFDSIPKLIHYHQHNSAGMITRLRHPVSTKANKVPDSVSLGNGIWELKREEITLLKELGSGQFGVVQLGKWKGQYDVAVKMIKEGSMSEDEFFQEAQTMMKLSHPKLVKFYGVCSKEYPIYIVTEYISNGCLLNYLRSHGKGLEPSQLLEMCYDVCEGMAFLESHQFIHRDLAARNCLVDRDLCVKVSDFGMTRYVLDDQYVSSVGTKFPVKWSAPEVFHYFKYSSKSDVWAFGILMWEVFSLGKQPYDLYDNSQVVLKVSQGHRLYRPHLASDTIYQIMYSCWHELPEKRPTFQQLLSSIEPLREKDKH
The experiment in a line: BMX biochemical activity assay (HTRF, phosphorylation of a biotinylated peptide). The conditions noted are these: for IC50: read-out: BMX IC50. A general note: Time-resolved FRET reads energy transfer from a long-lived donor to a nearby acceptor.

A further data set can be described thus: in vitro. The conditions noted are these: PAMPA, pH 6.8, PAMPA/Pe effective permeability.
Setting [4] is: Experiment 1 of Fig. S3, control JS9A (in-house BMX-IN-1).
Where [5] appears, read: relative to the control of the same set of experiments.
Setting [6] is: Experiment 2 of Fig. S3, control commercial BMX-IN-1.
[7] abbreviates: Experiment 3 of Fig. S3, control commercial BMX-IN-1.
Where [8] appears, read: deionized and filtered water (0.1% DMSO), kinetic from dmso stock.

Molecules are shown by their SMILES. Converted amounts (≈) assume the structure as drawn. Like-named read-outs stand apart in the source and are kept apart here.

Excerpt for in vitro: as §1, §2, §3, §4, §5, §6, §7, §8, §9, §10, §11, §12, §13, §14, §15, §16, §17, §18, §19, §20, §21

As for `C=CC(=O)Nc1cccc(-n2c(=O)ccc3cnc4ccc(-c5ccc(NS(C)(=O)=O)cc5)cc4c32)c1` [JS9D], the solubility in data set [1] (water) is 1 µM (≈ 0.511 µg/mL). In addition, in data set [2], the PAMPA/%R membrane retention was 48±3% and the PAMPA/Pe effective permeability is reported as 11±1 x10-6 cm/sec. In data set [3], the ΔTm stood at 7.74±0.01 °C and the “Average Tm of BMX with compound” value worked out at 59.66±0.01 °C. In addition, the IC50 on BMX (setting [4]) was determined as 59 ± 5 nM. Also, at BMX (setting [5]), the “BMX potency gain (fold) against BMX-IN-1” value amounted to 6 fold.

Regarding `C=CC(=O)Nc1cc(-n2c(=O)ccc3cnc4ccc(-c5ccc(C#N)nc5)cc4c32)ccc1C` [JS18], in data set [1] (water), the solubility is below 0.1 µM. In data set [2], the PAMPA/%R membrane retention stood at 18±5% and the PAMPA/Pe effective permeability is listed as 24±2 x10-6 cm/sec. In data set [3], the ΔTm was 7.49±0.11 °C and the “Average Tm of BMX with compound” value worked out at 59.42±0.11 °C. Moreover, on BMX (setting [6]), the IC50 turned out to be 140 ± 12 nM.

Take `Cc1ccc(-n2c(=O)ccc3cnc4ccc(-c5ccc(NS(C)(=O)=O)cc5)cc4c32)cc1NCC=CC#N` (mixture of isomers) [JS12]: the solubility in data set [1] (water) turned out to be 0.1 µM. Besides, in data set [2], the PAMPA/%R membrane retention came to 39±2% and the PAMPA/Pe effective permeability is recorded as 45±3 x10-6 cm/sec. Further, in data set [3], the shift in melting temperature (ΔTm) was found to be 0.13±0.06 °C and the “Average Tm of BMX with compound” value came to 52.05±0.06 °C.

On to `C=CC(=O)Nc1cc(-n2c(=O)ccc3cnc4ccc(N5CCOCC5)cc4c32)ccc1C` [JS21], for which, in data set [2], the PAMPA/%R membrane retention was found to be 19±3% and the PAMPA/Pe effective permeability is 22±1 x10-6 cm/sec. Moreover, in data set [3], the ΔTm worked out at 8.57±0.06 °C and the “Average Tm of BMX with compound” value turned out to be 60.50±0.06 °C. Further, at BMX (setting [6]), the IC50 was determined as 43 ± 5 nM.

On to `C=CC(=O)Nc1cc(-n2c(=O)ccc3cnc4ccc(-c5ccc(NS(=O)(=O)CCCC)cc5)cc4c32)ccc1C` [JS14], for which, in data set [1] (water), the solubility was found to be 0.1 µM (≈ 0.0567 µg/mL). Moreover, in data set [2], the PAMPA/Pe effective permeability result is listed as “Und”. In data set [3], the thermal shift (ΔTm) is 7.61±0.11 °C and the “Average Tm of BMX with compound” value amounted to 59.53±0.11 °C. Moreover, the IC50 at BMX (setting [6]) is 890 ± 27 nM.

Regarding `C=CC(=O)Nc1cc(-n2c(=O)ccc3cnc4ccc(N5CCN(S(C)(=O)=O)CC5)cc4c32)ccc1C` [JS22], in data set [2], the PAMPA/%R membrane retention worked out at 19±6% and the PAMPA/Pe effective permeability is 18±1 x10-6 cm/sec. Besides, in data set [3], the ΔTm is 8.79±0.21 °C and the “Average Tm of BMX with compound” value turned out to be 60.72±0.21 °C. In addition, the IC50 on BMX (setting [7]) was 93.8 ± 0.87 nM.

`C=CC(=O)Nc1cc(C)cc(-n2c(=O)ccc3cnc4ccc(-c5ccc(NS(C)(=O)=O)cc5)cc4c32)c1` [JS9B, N-(3-methyl-5-(9-(4-(methylsulfonamido)phenyl)-2-oxobenzo[h][1,6]naphthyridin-1(2H)-yl)phenyl)acrylamide]: the solubility in data set [1] (setting [8]) was below 0.1 µM. This compound had a PAMPA/%R membrane retention in data set [2] of 35±7%. Besides, the apparent permeability (Papp) in “in vitro” amounted to 7.1 ± 2.3 ×10⁻⁶ cm/s. In addition, in data set [3], the ΔTm at 100 µM was 7.75 ± 0.11 °C and the “Average Tm of BMX with compound” value is 59.68±0.11 °C. Moreover, the half-maximal inhibitory concentration (IC50) at BMX (setting [4]) was found to be 240 ± 25 nM.

As for `C=CC(=O)Nc1cc(-n2c(=O)ccc3cnc4ccc(N5CCC(N(C)C)CC5)cc4c32)ccc1C` [JS23], in data set [2], the PAMPA/%R membrane retention is on record as 39±5% and the PAMPA/Pe effective permeability was 2.2±0.2 x10-6 cm/sec. Also, in data set [3], the ΔTm was 8.66±0.11 °C and the “Average Tm of BMX with compound” value came out at 60.59±0.11 °C. Also, the 50% inhibitory concentration (IC50) on BMX (setting [6]) amounted to 41 ± 6 nM.

On to `C=CC(=O)Nc1cc(-n2c(=O)ccc3cnc4ccc(Br)cc4c32)ccc1C` [JS29], for which, in data set [2], the PAMPA/%R membrane retention is 1±1% and the PAMPA/Pe effective permeability is 32±4 x10-6 cm/sec. In addition, the IC50 on BMX (setting [6]) is 44 ± 2 nM.

In the case of `C=CC(=O)Nc1cc(-n2c(=O)ccc3cnc4ccc(-c5ccncc5)cc4c32)ccc1C` [JS17], in data set [2], the PAMPA/%R membrane retention came to 10±3% and the PAMPA/Pe effective permeability was 24±1 x10-6 cm/sec. Besides, in data set [3], the shift in melting temperature (ΔTm) turned out to be 7.62±0.01 °C and the “Average Tm of BMX with compound” value came out at 59.55±0.01 °C. Besides, the IC50 at BMX (setting [6]) turned out to be 45 ± 10 nM.

In the case of `C=CC(=O)Nc1cc(-n2c(=O)ccc3cnc4ccc(-c5cccc(NS(C)(=O)=O)c5)cc4c32)ccc1C` [JS15], in data set [1] (water), the solubility was 1 µM (≈ 0.525 µg/mL). In addition, in data set [2], the PAMPA/%R membrane retention amounted to 17±24% and the PAMPA/Pe effective permeability is listed as 30±18 x10-6 cm/sec. Moreover, in data set [3], the shift in melting temperature (ΔTm) turned out to be 8.79±0.28 °C and the “Average Tm of BMX with compound” value came out at 60.72±0.28 °C. At BMX (setting [7]), the IC50 is 119 ± 11.4 nM.

On to `C=CC(=O)Nc1cc(-n2c(=O)ccc3cnc4ccc(-c5ccc(C(F)(F)F)nc5)cc4c32)ccc1C` [JS19], for which the solubility in data set [1] (water) is listed as below 0.1 µM. The PAMPA/Pe effective permeability result in data set [2] is “Und”. For the same compound, the “Average Tm of BMX with compound” value in data set [3] turned out to be 58.64±0.13 °C. The IC50 at BMX (setting [6]) amounted to 470 ± 179 nM.

As to `C=CC(=O)Nc1cc(-n2c(=O)ccc3cnc4ccc(N5CCCCC5)cc4c32)ccc1C` [JS20], in data set [2], the PAMPA/%R membrane retention is 18±1% and the PAMPA/Pe effective permeability was 30±2 x10-6 cm/sec. Further, in data set [3], the shift in melting temperature (ΔTm) was 7.36±0.11 °C and the “Average Tm of BMX with compound” value came out at 59.29±0.11 °C. In addition, the half-maximal inhibitory concentration (IC50) at BMX (setting [6]) stood at 42 ± 13 nM.

Regarding `C=CC(=O)Nc1cc(-n2c(=O)ccc3cnc4ccc(-c5ccc(NS(C)(=O)=O)cc5)cc4c32)ccc1OC` [JS9E], in data set [1] (water), the solubility is 1 µM (≈ 0.541 µg/mL). Further, in data set [2], the PAMPA/%R membrane retention is reported as 55±8% and the PAMPA/Pe effective permeability is listed as 40±5 x10-6 cm/sec. Besides, in data set [3], the ΔTm is 6.05±0.01 °C and the “Average Tm of BMX with compound” value came out at 57.97±0.01 °C. In addition, the 50% inhibitory concentration (IC50) at BMX (setting [4]) came to 1300 ± 206 nM. For the same compound, the “BMX potency loss (fold) against control BMX-IN-1” value on BMX (setting [5]) came out at 4 fold.

On to `COC(=O)C=CCNc1cc(-n2c(=O)ccc3cnc4ccc(-c5ccc(NS(C)(=O)=O)cc5)cc4c32)ccc1C` (mixture of isomers) [JS13], for which the solubility in data set [1] (water) was 0.1 µM. Moreover, in data set [2], the PAMPA/%R membrane retention was 30±16% and the PAMPA/Pe effective permeability is 45±9 x10-6 cm/sec. Further, in data set [3], the thermal shift (ΔTm) turned out to be 0.52±0.06 °C and the “Average Tm of BMX with compound” value stood at 52.44±0.06 °C.

For the compound `C=CC(=O)Nc1ccc(C)c(-n2c(=O)ccc3cnc4ccc(-c5ccc(NS(C)(=O)=O)cc5)cc4c32)c1` [JS9C, N-(4-methyl-3-(9-(4-(methylsulfonamido)phenyl)-2-oxobenzo[h][1,6]naphthyridin-1(2H)-yl)phenyl)acrylamide], in data set [1] (setting [8]), the solubility stood at 1 µM (≈ 0.525 µg/mL). Also, in data set [2], the PAMPA/%R membrane retention was found to be 51±6%. Also, the apparent permeability (Papp) in the data set “in vitro” was found to be 11 ± 1 ×10⁻⁶ cm/s. In data set [3], the shift in melting temperature (ΔTm) at 100 µM came to 2.2 ± 0.06 °C and the “Average Tm of BMX with compound” value amounted to 54.12±0.06 °C. Also, the IC50 at BMX (setting [4]) came out at 6900 ± 2920 nM. The “BMX potency loss (fold) against control BMX-IN-1” value on BMX (setting [5]) was “abolishes target inhibition”.
